Test in all cases: NCI-60 cell line screen, 48 h
Assay [1] deals with HCC-2998 colon.
Assay [2] has as its system EKVX NSCLC.
The subject of assay [3] is HL-60(TB) leukemia.
In assay [4] the test system is HCT-116 colon.
In assay [5] the test system is A498 renal.
Assay [6] has as its system UO-31 renal.
Assay [7] concerns MOLT-4 leukemia.
In assay [8] the test system is A549 NSCLC.
The test system of assay [9] is NCI-H226 lung.
Assay [10] has as its system SR leukemia.

“And” between values parts separate entries of the source, which are not always exact repeats. Equal values may be shown once.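 The compound was tested at five concentrations on cells cultured in 96-well plates, with a 48-hour exposure period. The concentration for 50% growth inhibition is given as GI50. Definition used: TGI = concentration required for complete inhibition of growth.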 Where only a bound is given, the exact number is not on record here.

As for `COc1ccc2c(c1)C(=O)c1c-2n(CCCN)c(=O)c2cc(OC)c(OC)cc12`, the GI50 in assay [1] is 0.109 µM; in [2], 1.83 µM; in assay [3] it was < 0.0245 µM; in assay [4], 0.0287 µM; in [5], 1.89 µM; in [6] it was 1.19 µM. Besides, the values for the GI50 in assay [7] and in [8] were < 0.01 µM and 0.0267 µM, respectively. Also, the TGI in [1] stood at 0.294 µM; in [2] it was 3.67 µM; in [4], 0.181 µM; in assay [5], 5.59 µM; in [6] it was 2.72 µM; in assay [8], 0.182 µM.
As to `COc1cc2c(cc1OC)c1c(OC)c(OC)cc3c1c1c2sc(=S)n1CC3`, the TGI is > 100 µM in [9]; > 100 µM in assay [1]; > 100 µM in assay [2]; 81.8 µM in assay [3]; > 100 µM in assay [4]; > 100 µM in assay [5]. The TGI in assay [6], in [7] and in assay [8] was > 100 µM in each case.
For `N#Cc1cc(NC(=O)c2ccccc2)c(=O)n2c1[nH]c1ccccc12`, the TGI in assay [1] was > 100 µM; in assay [2] it was > 100 µM; in [3], 74.6 µM; in [4], > 100 µM; in assay [5], 85.8 µM; in assay [6] it was 42.9 µM. Also, the TGI in assay [7] and in assay [8] was > 100 µM throughout.
Consider `COc1ccc(CNc2cnc3cc(N)cc(N)c3n2)cc1`, for which the GI50 is 14.3 µM in assay [1]; 14.4 µM in assay [2]; 19.4 µM in [4]; 16.3 µM in [6]; 15.9 µM in assay [7]; 23 µM in [8]. For the same compound, the TGI in [1] is 28 µM; in assay [2], 31.1 µM; in assay [4], 40.8 µM; in assay [6], 33.7 µM; in assay [7], 43.2 µM; in assay [8] it was 54.1 µM.
`Cc1cc(C)nc(NS(=O)(=O)c2ccc(NC(=O)c3ccc(Cl)c4c(Nc5ccc(S(=O)(=O)N=C(N)N)cc5)c5ccccc5nc34)cc2)n1`: the TGI in assay [9] was > 100 µM; in assay [1], 78.2 µM; in assay [2], > 100 µM; in assay [3], 25.1 µM; in [4] it was > 100 µM; in [5], > 100 µM. Further, the results for the TGI in [6], in [7] and in assay [8] were > 100 µM, 63.2 µM and > 100 µM, respectively.
Regarding `COC(=O)C1=C(O)[C@H](C(=O)OC)[C@]2(O)[C@@H](C(=O)OC)[C@H]1C[C@@H](c1ccc(OC(=O)/C=C/c3ccco3)cc1)[C@@H]2C(=O)OC`, the GI50 in assay [9] was 15.8 µM; in assay [1], 7 µM; in assay [2], 21.9 µM; in assay [3] it was 13.9 µM; in assay [4], 4.9 µM; in [7], 1.29 µM. Moreover, in assay [8], the GI50 is 30.5 µM. The TGI turned out to be 37.1 µM in [9]; 19.3 µM in assay [1]; 49.1 µM in assay [2]; 75.1 µM in assay [3]; 17.6 µM in assay [4]; 6.67 µM in assay [7]. The TGI in assay [8] is > 100 µM.
As for `COC(=O)C(=O)C(C(=O)C(=O)Nc1ccc(C)cc1)c1nc2ccc(C(=O)c3ccccc3)cc2[nH]c1=O` (stereo not given), the TGI in assay [9], in assay [1], in assay [2], in assay [3], in [4] and in assay [5] was > 100 µM each time. The TGI in [6] and in assay [8] was > 100 µM each time.
Regarding `COc1ccc(/C=c2/sc3n(c2=O)NC(c2ccc(Cl)cc2)NN=3)cc1` (stereo not given), the TGI in [9], in assay [10], in [1], in [2], in assay [4] and in [6] was > 100 µM throughout. Also, the TGI in [7] and in assay [8] was > 100 µM in each case.
On to `Cc1nc(Nc2ccccc2)sc1C(=O)CC(=O)C(=O)NC12CC3CC(CC(C3)C1)C2`, for which the TGI was > 100 µM in assay [9]; > 100 µM in [1]; 73 µM in [2]; > 100 µM in [3]; > 100 µM in assay [4]; > 100 µM in assay [6]. Besides, the TGI in assay [7] and in assay [8] was > 100 µM throughout.
Regarding `NNC(=O)N/N=C1\C(=O)N(c2nccs2)C(=O)C(=O)C1c1nc2ccccc2s1` (stereo not given), the TGI in assay [9], in assay [1], in [2], in [4], in [6] and in assay [8] was > 100 µM each time.
Consider `Nc1nc(N)c(N=Nc2ccc(C(=O)O)c(O)c2)c(N)n1`, for which the TGI in assay [9], in [10], in assay [2], in assay [4], in assay [5] and in assay [6] was > 100 µM throughout. Moreover, the TGI in assay [7] and in assay [8] was > 100 µM in each case.
On to `CN(O)C(=S)c1ccccc1`, for which the TGI in assay [9] is > 100 µM; in assay [1] it was 44 µM; in assay [2] it was > 95.2 µM; in [3], 7.04 µM; in assay [4] it was 5.07 µM; in assay [5], 68.2 µM. Further, the TGI was 21.6 µM in assay [6], 5.11 µM in assay [7] and > 100 µM in assay [8].
For `CCOC(=O)c1csc(NC(=O)COc2cccc(/C=C3\CSc4ccccc4C3=O)c2)n1`, the GI50 in assay [9] is 1.52 µM; in [1], 0.0447 µM; in [2], 2.29 µM; in assay [3], 0.638 µM; in assay [4], 1.63 µM; in assay [5], 12.1 µM. Further, the GI50 in assay [6] is 0.145 µM; in assay [7], > 100 µM; in assay [8], 2.41 µM. The TGI is 3.41 µM in assay [9]; 0.382 µM in assay [1]; 19.9 µM in assay [2]; 2.11 µM in [3]; 3.04 µM in assay [4]; 24.5 µM in [5]. The TGI is 0.286 µM in [6], > 100 µM in assay [7] and 18.5 µM in [8].
Turning to `Cc1ccc(NC(=O)CC/C(CC(=O)C(C)(C)C)=N\Nc2ccc([N+](=O)[O-])cc2[N+](=O)[O-])cc1C`, the TGI in [9], in assay [10], in assay [2], in assay [4], in [6] and in assay [7] was > 100 µM each time. The TGI in assay [8] is > 100 µM.
Regarding `CC(O)CN1c2ccccc2Sc2ccc(Cl)cc21` (stereo not given), the TGI in assay [9], in assay [1], in [2], in assay [3], in [4] and in assay [5] was > 10 µM throughout. Also, the TGI in assay [6], in assay [7] and in assay [8] was > 10 µM in each case.
Take `COc1ccc(/C=C\c2cc(OC)c(OC)c(OC)c2)c(O)c1O`: the GI50 is 0.297 µM and 0.05 µM in [9]; 3.76 µM in [2]; 0.136 µM and 1.33 µM in [4]; 0.247 µM and 0.05 µM in assay [5]; 6.76 µM in assay [6]; 0.456 µM in assay [7]. Besides, the GI50 in [8] is 0.0754 µM. In addition, the TGI in assay [9] was 1.69 µM and 1.62 µM; in assay [1], 2.47 µM and 3.06 µM; in assay [2] it was 70.1 µM and 96.1 µM; in [3] it was 0.376 µM; in [4], 14.3 µM and 24 µM; in assay [6], 33.7 µM and > 77.8 µM. The TGI in assay [7] is 20.8 µM and 3.4 µM; in assay [8], > 70.1 µM and 88.7 µM.
On to `COC(=O)C(=O)C(C(=O)C=C(C)C)C(=O)C(=O)Nc1nc2ccc([N+](=O)[O-])cc2s1` (stereo not given), for which the TGI in assay [9] is > 100 µM; in assay [1], > 100 µM; in [2] it was > 100 µM; in [3], > 100 µM; in assay [4], > 100 µM; in [5], 91 µM. Further, the TGI in assay [6], in assay [7] and in [8] was > 100 µM throughout.
Turning to `Cn1nc(-c2ccccc2)c(C(=O)/C=C/c2ccc(F)cc2)c(N2CCOCC2)c1=O`, the TGI was found to be 75 µM in assay [2]; 40.5 µM in assay [3]; 14.3 µM in assay [4]; 32 µM in assay [5]; 25.6 µM in [6]; 48.7 µM in [7]. Besides, the TGI in [8] came to 54.3 µM.
As for `C[C@@H]1CC[C@@H]2[C@@H](C)C[C@H]3[C@@H]4C(C)(C)OC(=O)[C@]4(C)C(=O)[C@@]23C1=O`, the TGI in [9], in assay [1], in [2], in [3], in assay [4] and in [6] was > 100 µM in each case. Further, the TGI in [7] and in assay [8] was > 100 µM each time. The GI50 in assay [6] is > 100 µM.
On to `CC1=NN(C(=O)c2ccc(Cl)cc2)C(=O)/C1=C/c1ccco1`, for which the TGI in assay [1], in [2], in assay [3], in [4], in [5] and in assay [6] was > 100 µM in each case. Moreover, the TGI in assay [7] and in [8] was > 100 µM each time.

The values above are taken from PubChem BioAssay (NCI).
